Experiments:
D(1A) dopamine receptor = D(1A) dopamine receptor (Homo sapiens, UniProt P21728)
Androgen receptor [1] = target: T1, Androgen receptor (Rattus norvegicus, UniProt P15207); format: functional
T1 sequence (P15207 whole entry): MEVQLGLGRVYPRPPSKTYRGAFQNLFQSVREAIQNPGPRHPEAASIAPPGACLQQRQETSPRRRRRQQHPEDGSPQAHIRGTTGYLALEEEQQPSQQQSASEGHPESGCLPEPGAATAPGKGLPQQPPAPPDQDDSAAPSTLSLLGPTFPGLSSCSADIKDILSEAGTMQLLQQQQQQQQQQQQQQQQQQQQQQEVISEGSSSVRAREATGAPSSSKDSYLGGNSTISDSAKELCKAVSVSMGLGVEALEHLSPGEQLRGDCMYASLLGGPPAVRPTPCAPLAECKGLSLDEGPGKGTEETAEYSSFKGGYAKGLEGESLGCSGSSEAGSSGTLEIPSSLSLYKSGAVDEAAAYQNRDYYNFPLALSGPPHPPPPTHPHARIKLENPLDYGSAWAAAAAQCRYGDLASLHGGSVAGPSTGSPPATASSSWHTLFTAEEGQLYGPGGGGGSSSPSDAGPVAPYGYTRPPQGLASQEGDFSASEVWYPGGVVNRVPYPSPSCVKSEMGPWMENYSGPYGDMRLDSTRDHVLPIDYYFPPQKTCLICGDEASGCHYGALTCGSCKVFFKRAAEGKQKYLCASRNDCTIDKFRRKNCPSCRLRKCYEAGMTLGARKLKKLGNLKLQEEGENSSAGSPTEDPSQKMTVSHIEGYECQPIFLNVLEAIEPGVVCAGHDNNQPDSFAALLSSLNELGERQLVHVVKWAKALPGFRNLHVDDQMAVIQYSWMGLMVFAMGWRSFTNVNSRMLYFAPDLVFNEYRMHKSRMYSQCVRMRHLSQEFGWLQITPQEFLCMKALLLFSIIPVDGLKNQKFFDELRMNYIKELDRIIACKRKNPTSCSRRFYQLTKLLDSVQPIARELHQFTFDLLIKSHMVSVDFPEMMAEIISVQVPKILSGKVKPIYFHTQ

[2] = target: Beta-2 adrenergic receptor (Homo sapiens, UniProt P07550); format: functional, cell-based
Androgen receptor [3] = target: T1, Androgen receptor; format: functional; remark: listed apart in the source
[4] = target: 5-hydroxytryptamine receptor 2A (Homo sapiens, UniProt P28223)
Progesterone receptor = target: T2, Progesterone receptor (Homo sapiens, UniProt P06401)
T2 sequence (P06401 whole entry): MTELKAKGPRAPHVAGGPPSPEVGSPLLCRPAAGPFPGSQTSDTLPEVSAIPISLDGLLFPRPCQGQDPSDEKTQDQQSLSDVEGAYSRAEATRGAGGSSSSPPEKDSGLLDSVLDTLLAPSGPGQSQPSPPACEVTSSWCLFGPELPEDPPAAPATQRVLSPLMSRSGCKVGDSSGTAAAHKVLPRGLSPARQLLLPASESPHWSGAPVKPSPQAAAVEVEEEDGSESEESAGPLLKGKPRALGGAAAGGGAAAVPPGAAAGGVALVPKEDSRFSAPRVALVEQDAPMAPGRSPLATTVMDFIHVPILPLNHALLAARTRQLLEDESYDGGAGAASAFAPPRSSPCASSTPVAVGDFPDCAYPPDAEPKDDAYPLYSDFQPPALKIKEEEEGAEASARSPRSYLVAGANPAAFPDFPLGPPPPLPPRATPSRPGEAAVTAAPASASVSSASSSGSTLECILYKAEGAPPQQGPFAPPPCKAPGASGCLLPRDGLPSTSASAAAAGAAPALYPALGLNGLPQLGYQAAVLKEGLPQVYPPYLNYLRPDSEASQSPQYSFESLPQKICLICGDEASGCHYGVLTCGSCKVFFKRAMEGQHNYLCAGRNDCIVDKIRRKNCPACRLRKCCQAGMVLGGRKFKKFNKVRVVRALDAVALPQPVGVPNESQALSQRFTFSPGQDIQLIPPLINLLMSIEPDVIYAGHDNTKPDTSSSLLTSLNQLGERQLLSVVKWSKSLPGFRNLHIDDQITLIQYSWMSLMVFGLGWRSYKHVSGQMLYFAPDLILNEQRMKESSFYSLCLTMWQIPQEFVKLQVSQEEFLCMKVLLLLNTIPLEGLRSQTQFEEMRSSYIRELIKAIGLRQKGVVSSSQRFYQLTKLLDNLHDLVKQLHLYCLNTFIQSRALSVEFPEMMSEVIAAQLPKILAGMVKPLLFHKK
Further: assay procedure not described here.

Sequence of Beta-2 adrenergic receptor (P07550 whole entry): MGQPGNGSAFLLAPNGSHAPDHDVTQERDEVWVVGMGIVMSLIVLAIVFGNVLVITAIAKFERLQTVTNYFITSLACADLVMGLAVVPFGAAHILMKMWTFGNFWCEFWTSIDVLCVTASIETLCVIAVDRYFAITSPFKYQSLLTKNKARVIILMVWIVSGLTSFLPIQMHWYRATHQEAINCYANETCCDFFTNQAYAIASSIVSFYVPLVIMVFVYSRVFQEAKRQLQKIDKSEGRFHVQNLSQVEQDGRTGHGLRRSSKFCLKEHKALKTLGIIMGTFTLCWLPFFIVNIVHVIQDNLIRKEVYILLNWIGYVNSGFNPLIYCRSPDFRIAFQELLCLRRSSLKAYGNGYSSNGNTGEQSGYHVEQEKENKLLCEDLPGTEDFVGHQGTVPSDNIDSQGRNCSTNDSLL
Sequence of 5-hydroxytryptamine receptor 2A (P28223 whole entry): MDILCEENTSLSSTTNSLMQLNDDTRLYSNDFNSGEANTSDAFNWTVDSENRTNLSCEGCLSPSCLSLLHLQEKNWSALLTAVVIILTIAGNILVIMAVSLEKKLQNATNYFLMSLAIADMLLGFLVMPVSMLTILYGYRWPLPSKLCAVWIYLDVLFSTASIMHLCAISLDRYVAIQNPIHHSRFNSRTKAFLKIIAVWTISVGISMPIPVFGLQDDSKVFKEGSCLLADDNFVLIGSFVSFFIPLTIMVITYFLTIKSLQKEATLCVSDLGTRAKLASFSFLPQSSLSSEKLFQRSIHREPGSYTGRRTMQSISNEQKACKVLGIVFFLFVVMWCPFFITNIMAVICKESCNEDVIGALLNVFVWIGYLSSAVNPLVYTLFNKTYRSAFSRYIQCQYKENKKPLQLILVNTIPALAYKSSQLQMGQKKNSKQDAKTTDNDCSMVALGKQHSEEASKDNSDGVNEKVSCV
Sequence of D(1A) dopamine receptor (P21728 whole entry): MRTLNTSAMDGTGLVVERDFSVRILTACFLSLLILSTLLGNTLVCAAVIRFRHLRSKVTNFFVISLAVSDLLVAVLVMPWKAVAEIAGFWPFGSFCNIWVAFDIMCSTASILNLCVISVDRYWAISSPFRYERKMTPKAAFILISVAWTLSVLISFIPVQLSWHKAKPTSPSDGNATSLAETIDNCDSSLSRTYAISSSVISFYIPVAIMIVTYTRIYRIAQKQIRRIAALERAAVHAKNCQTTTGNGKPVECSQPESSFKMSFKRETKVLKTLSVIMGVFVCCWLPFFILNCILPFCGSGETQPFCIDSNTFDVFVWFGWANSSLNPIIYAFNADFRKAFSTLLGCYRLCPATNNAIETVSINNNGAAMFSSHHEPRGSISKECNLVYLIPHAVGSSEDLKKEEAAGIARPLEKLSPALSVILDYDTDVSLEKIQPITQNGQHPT

Structure (SMILES) | AC50 (D(1A) dopamine receptor) | AC50 (Androgen receptor [1]) | AC50 [2] | AC50 (Androgen receptor [3]) | AC50 [4] | AC50 (Progesterone receptor)
CCN(CC)C(=O)N[C@H]1C[C@@H]2c3cccc4[nH]cc(c34)C[C@H]2N(C)C1 [TERGURIDE] | 0.41 µM | > 30 µM | > 30 µM | > 30 µM | – | –
Clc1ccc(CCCOCCCN2CCCCC2)cc1 [PITOLISANT] | – | > 30 µM | > 30 µM | > 30 µM | – | –
CC(=O)O[C@H]1CC[C@@]2(C)C(=CC[C@@H]3[C@@H]2CC[C@]2(C)C(c4cccnc4)=CC[C@@H]32)C1 [ABIRATERONE ACETATE] | – | > 30 µM | > 30 µM | > 30 µM | > 10 µM | 3.1 µM
CC(C)OC(=O)CCC/C=C\C[C@@H]1[C@@H](CC[C@@H](O)CCc2ccccc2)[C@H](O)C[C@@H]1O [LATANOPROST] | – | > 30 µM | > 30 µM | > 30 µM | – | –
Cn1c(=O)c2c(ncn2CC2OCCO2)n(C)c1=O [DOXOFYLLINE] | – | > 30 µM | > 30 µM | > 30 µM | – | –

From ChEMBL document CHEMBL5291721, “A preclinical secondary pharmacology resource illuminates target-adverse drug reaction associations of marketed drugs” (Nat Commun, 2023)
